In US9512090B2, “Tetrazolinone compound and use thereof” (Sumitomo Chemical Company, Limited, priority 2013, dated 2016):

What was measured:
[1] = system: cucumber powdery mildew fungus (Sphaerotheca fuliginea); experiment: Test Example 6 and Comparative Test Example: cucumber powdery mildew control by foliar spray; type: in vivo; conditions: 500 ppm spray on cucumber (SAGAMI HANJIRO); 8 days after inoculation
[2] = system: common house mosquito (Culex pipiens pallens); experiment: Test Example 12: common house mosquito larvae mortality in treated water; type: in vivo; conditions: active ingredient 3.5 ppm in water; last instar larvae; after 8 days
Description: A water dilution containing a surfactant prepared by adjusting so as to contain a predetermined concentration (500 ppm) of any one compound of the present compounds 20, 29, and 79 was used as a test chemical solution.
The above test chemical solution (0.7 mL) was added to 100 mL of deionized water to adjust the concentration of an active ingredient to 3.5 ppm. Twenty (20) heads of last instar larvae of common house mosquito (Culex pipiens pallens) were released in the solution and the number of dead insects was counted after 8 days.
Mortality was determined by the following equation. Mortality (%)=(number of dead insects/number of test insects)×100

Row | Compound | area of lesion spots on the treated plant relative to that on an untreated plant [1] | mortality [2]
1 | Cc1ccc(OCc2ccccc2-n2nnn(C)c2=O)cc1 [1-{2-(4-methylphenoxymethyl)phenyl}-4-methyl-1,4-dihydrotetrazol-5-one] | ≥ 70% | 
2 | COc1ccccc1-c1ccc(OCc2c(OC)cccc2-n2nnn(C)c2=O)c(C)c1 [compound 20] |  | 100%
3 | CCN(c1ccccc1)c1ccc(OCc2c(C)cccc2-n2nnn(C)c2=O)c(C)c1 [compound 79] |  | 100%
4 | Cc1cc(OCc2c(C)cccc2-n2nnn(C)c2=O)ccc1-c1ccccc1 [compound 29] |  | 100%
